Measured values published in patent publication US3954814A, “Alkadienylcyclopropanecarboxylates” (Sumitomo Chemical Company, Limited, priority 1971, dated 1976).
Converted amounts (≈) assume the structure as drawn.

Legend:
Format in all cases: in vivo
[1] = test system: rice stem borer larvae; experiment: micro dropping (topical) test on hibernating rice stem borer larvae (Experimental Example 3); details: topical in acetone, head and tail of larvae, 3 days
From the text: The present compounds (1), (4), (8), (10), (14), (15), (22), (32), (36), (38), (41), (44), (48), (50), (51), (52), (53), (61), (66), (68), (72), (73), (80), (81), (90) and (93) and chrysanthemic acid esters corresponding thereto were individually dissolved in acetone to prepare insecticides of various concentrations. Using a micro dropping means, each of the insecticides was dropped to the head and tail of hibernating rice stem borer larvae.

[2] = test system: Northern house mosquitoes; experiment: knock-down test of oil sprays on Northern house mosquito adults in (70 cm)^3 glass chamber (Experimental Example 2)
Method: The present compounds (1), (6), (20), (22), (23), (25), (27), (29), (30), (31), (39), (42), (43), (45), (49), (53), (56), (62), (64), (78), (81), (83), (85), (87), (88) and (89), and chrysanthemic acid esters and pyrethric acid esters corresponding thereto were individually formulated by use of deodorized kerosene into oil sprays of various test concentrations.
About 20 adults of Northern house mosquitoes were liberated in a (70 cm)^3 glass chamber, and 0.7 ml. of each of the oil sprays was sprayed into the chamber under a pressure of 1.5 kg/cm^2 by use of a glass atomizer. Subsequently, the number of knocked-down mosquitoes was counted to calculate the KT50 (50 percent knock down time) of each compound.

[3] = test system: house flies; experiment: Campbell's turn table oil spray test on house fly adults (Experimental Example 1); details: Musca domestica, 24 h, oil spray 5 ml, 10 min exposure, mortality after 1 day, read-out: LC50 (50 percent lethal concentration)
Method: The present compounds (1), (4), (8), (10), (14), (15), (20), (22), (32), (36), (38), (41), (44), (48), (50), (51), (52), (53), (61), (66), (68), (72), (73), (78), (80), (81), (90), (93) and (96), and chrysanthemic acid esters and pyrethric acid esters corresponding thereto were individually formulated by use of deodorized kerosene into oil sprays of various test concentrations.
Using the Campbell's turn table [disclosed in "Soap & Sanitary Chemicals," Vol. 14, No. 6, page 119 (1938)], 5 ml. of each of the oil sprays was sprayed. When 20 seconds had elapsed after the spraying, the shutter was opened, and adults of house flies (a group of about 100 flies) were exposed to the settling mist for 10 minutes and then transferred to an observation cage.
The above operation was repeated several times to measure the LC50 (50 percent lethal concentration) of each compound.

[4] = concentration of oil spray 0.2%
[5] = concentration of oil spray 0.1%

SMILES	LD50 (50 percent lethal dose) [1]	KT50 (50 percent knock down time) [2, 4] [s]	LC50 [3] [µg/mL]	KT50 (50 percent knock down time) [2, 5] [s]
C=CC=CC1C(C(=O)OC2CC(=O)C(CC=C)=C2C)C1(C)C (centres unmarked) [Present compound (81), 2-Allyl-3-methyl-2-cyclopentene-1-one-4-yl 2',2'-dimethyl-3'-(1",3"-butadienyl)-cyclopropanecarboxylate]	1.7 γ/larva	141	590 (≈ 1960 µM)	–
C=CCC1=C(C)C(OC(=O)C2C(C=C(C)C)C2(C)C)CC1=O (centres unmarked) [Allethrin, reference compound]	2.6 γ/larva	197	1180 (≈ 3900 µM)	292
C=C(C)C=CC1C(C(=O)OCc2coc(Cc3ccccc3)c2)C1(C)C (centres unmarked) [Present compound (53), 5-Benzyl-3-furylmethyl 2',2'-dimethyl-3'-(3"-methyl-1",3"-butadienyl)-cyclopropanecarboxylate]	0.170 γ/larva	124	71 (≈ 203 µM)	–
C=CC(C)=CC1C(C(=O)OC(C#N)c2cccc(Oc3ccccc3)c2)C1(C)C (stereo not drawn) [Present compound (22), 3-Phenoxy-α-cyanobenzyl 2',2'-dimethyl-3'-(2"-methyl-1",3"-butadienyl)-cyclopropanecarboxylate]	0.006 γ/larva	–	40 (≈ 103 µM)	168
C=CC(C)=CC1C(C(=O)OCc2coc(Cc3ccccc3)c2)C1(C)C (centres unmarked) [Present compound (1), 5-Benzyl-3-furylmethyl 2',2'-dimethyl-3'-(2"-methyl-1", 3"-butadienyl)-cyclopropanecarboxylate]	0.068 γ/larva	131	53 (≈ 151 µM)	–
CC(C)=CC1C(C(=O)OCc2cc3c(o2)CCCC3)C1(C)C (centres unmarked) [4,5-Tetramethylenefurfuryl chrysanthemate, reference compound]	0.75 γ/larva	–	160 (≈ 529 µM)	–
C=CC=CC1C(C(=O)OC(C#N)c2cccc(Oc3ccccc3)c2)C1(C)C (stereo not drawn) [Present compound (80), 3-Phenoxy-α-cyanobenzyl 2',2'-dimethyl-3'-(1",3"-butadienyl)-cyclopropanecarboxylate]	0.005 γ/larva	–	35 (≈ 93.7 µM)	–
CC(C)=CC1C(C(=O)OCc2coc(Cc3ccccc3)c2)C1(C)C (centres unmarked) [5-Benzyl-3-furylmethyl chrysanthemate, 5-benzyl-3-furylmethyl chrysanthemate, reference compound]	0.20 γ/larva	205	100 (≈ 295 µM)	–
CC(C)=CC1C(C(=O)OC(C#N)c2cccc(Oc3ccccc3)c2)C1(C)C (stereo not drawn) [3-Phenoxy-α-cyanobenzyl chrysanthemate, reference compound]	0.01 γ/larva	–	60 (≈ 160 µM)	230
